Two compounds from paper PMC6656724 (Communications Biology, 2019) can be followed below.

Some results are limits rather than exact numbers.

Series [1] relates to HTT93Q flies (Drosophila melanogaster model of HD). Nature of the series: Pseudopupil assay in Drosophila model of Huntington's disease. The format is in vivo. The text has this:
To test the therapeutic efficacy of 1, we next employed a widely-used Drosophila melanogaster model of the inherited neurodegenerative disorder Huntington’s disease (HD)[30], which features pan-neuronal expression of a mutant huntingtin exon 1 fragment (HTT93Q). We have previously shown that several KMO inhibitors, including UPF 648 and Ro 61-8048, are neuroprotective in this Drosophila model. We thus tested the ability of 1 to ameliorate loss of photoreceptor neurons in the fly eye (rhabdomeres) using the pseudopupil assay. […] Although the efficacy of 1 may not be solely due to KMO inhibition in the fly, we have previously observed similar levels of neuroprotection with other KMO inhibitors.
Flies were kept on standard maize food at 25 °C with a 12:12 light/dark cycle. HTT93Q exon 1 expressing flies were generated by crossing female virgins carrying the UASHTT93Qexon1 transgene[30] (a gift of Larry Marsh and Leslie Thompson, University of California, Irvine) to males of elavGAL4 [c155] driver line, obtained from the Bloomington Drosophila Stock Center. For the drug feeding experiments, inhibitor 1 was dissolved in dimethylsulfoxide (DMSO) and added to maize media at the experimental concentrations. […] At day 7, rhabdomeres were scored as previously described. […] Rhabdomeres were examined using a Nikon Optiphot-2 light microscope, with ~ 80 ommatidia scored per fly.

A short description of series [2]: Brain tissue binding (equilibrium dialysis). The settings on record: mouse, brain homogenate. Type of series: in vitro ADME. As to the method: tissues were diluted (brain: 1:10, w/v; liver: 1:10,000, w/v) with Krebs buffer containing 100 mM Tris-HCl (pH 8.1), 10 mM KCl and 1 mM EDTA, and sonicated.
80 µl of the resulting tissue homogenates were incubated for 40 min at 37 °C with 20 µl aliquots of aqueous solutions of the test compounds (or water in controls), 10 µM kynurenine, 1 mM NADPH, 3 mM glucose-6-phosphate and 1U/ml glucose-6-phosphate dehydrogenase in a total volume of 200 µl. The reaction was terminated by the addition of 50 µl of 6% perchloric acid, the denatured proteins were removed by centrifugation, and newly synthesized 3-HK was quantified by HPLC with electrochemical detection (Coulochem 5100A; ESA, Chelmsford, MA) at an oxidation potential of […].
The methodology employed was a modification of that reported previously20. […]
for 1 minute and then centrifuged at 3000 rpm in 96-well blocks for 15 minutes (Allegra X12-R, Beckman Coulter, USA). All samples were analysed by means of UPLC/MS/MS on a Xevo TQs micro Mass Spectrometer (Waters Corporation, USA).
The unbound fraction was determined as the ratio of the peak area in artificial CSF to that in brain, with correction for dilution factor according to equation (5)21, […]
((1/f ! ,!""!#$%& ) − 1) + 1/D where D = dilution factor in brain homogenate and fu,apparent is the measured free fraction of diluted brain homogenate. […]

Series [3] in a line: Stability in rat hepatocytes.
Experimental: Rat hepatocyte compound stability assays were performed using cryopreserved vials of rat cryopreserved hepatocytes (Life Technologies), which were thawed according to manufacturer’s instructions and resuspended in Williams Medium E (WME) containing cell maintenance supplement pack (CM4000, Life
Technologies). Hepatocytes were incubated in suspension (0.5 million cells/mL) in 48 well non-collagen coated cell culture plates for 10 minutes at 37 °C, 5%
CO2. Upon addition of an equal volume of supplemented WME containing 1 mM test compound, an aliquot of incubation solution was removed to acetonitrile containing internal standard (final concentration 0.5 mM test compound and a cell density of 0.25 million cells/mL). Similarly, aliquots were removed at 3,6,9,15,30,45,60,90 and
100 mL of 80:20 water:acetonitrile was added to all samples and the analysis plate was centrifuged for 10 minutes at room temperature prior to injection and analysis of samples by UPLC-MS/MS using a Xevo TQs micro (Waters corporation, USA). XLfit (IDBS, UK) was used to calculate the exponential decay and consequently the rate constant (k) from the ratio of peak area of test compound to internal standard at each timepoint. The rate of intrinsic clearance (CLi) was then
1.10 Rat hepatocyte stability […]
internal standard at each timepoint. The calculated hepatocyte intrinsic clearance […]

One may read the fraction unbound as the share of the substance not bound to proteins or other matrix. A high value points to much free substance. On to `Cc1cc2c(c(C)c1Cl)N(CC(=O)O)C(=O)CO2` [compound 1, (6-chloro-5,7-dimethyl-3-oxo-2,3-dihydro-4H-1,4-benzoxazin-4-yl) acetic acid], for which the Neurodegeneration prevented in series [1] (HD flies, 100 μM, 7 days) is on record as ~ 57%. Besides, the “Reduction in neuron loss (rhabdomeres)” value in series [1] (HTT93Q flies, 10 μM or 100 μM for 7 days, vs untreated or DMSO) is “significant dose-dependent reduction”. The same compound gave a fraction unbound at 5 h, 10 µg/g in series [2] of 0.3. The same compound returned a Mean intrinsic clearance in series [3] of 0.8 mL/min/g liver.

The compound `CCOC(=O)CN1C(=O)COc2cc(C)c(Cl)c(C)c21` [1b] displayed a fraction unbound at 5 h, 10 µg/g in series [2] of 0.016. The Mean intrinsic clearance in series [3] is over 50 mL/min/g liver.
